{"source": "ChEMBL document CHEMBL1201862", "about": "“PubChem BioAssay data set” (2004)", "experiment_in_all_cases": "NCI-60 cell line screen, 48 h", "key": {"[1]": {"test_system": "M19-MEL"}, "[2]": {"test_system": "HOP-18"}, "[3]": {"test_system": "MOLT-4"}, "[4]": {"test_system": "Malme-3M"}, "[5]": {"test_system": "OVCAR-4"}, "[6]": {"test_system": "SK-MEL-28"}, "[7]": {"test_system": "NCI/ADR-RES"}, "[8]": {"test_system": "SNB-78"}, "[9]": {"test_system": "TK-10"}, "[10]": {"test_system": "M14"}, "[11]": {"test_system": "NCI-H23"}, "[12]": {"test_system": "COLO 205"}, "[13]": {"test_system": "IGROV-1"}, "[14]": {"test_system": "DLD-1"}, "[15]": {"test_system": "HOP-62"}, "[16]": {"test_system": "MDA-N"}, "[17]": {"test_system": "HCT-15"}, "[18]": {"test_system": "NCI-H522"}, "[19]": {"test_system": "KM12"}, "[20]": {"test_system": "EKVX"}, "[21]": {"test_system": "HCC 2998"}, "[22]": {"test_system": "CCRF-CEM"}, "[23]": {"test_system": "SF-268"}, "[24]": {"test_system": "HT-29"}, "[25]": {"test_system": "SK-MEL-5"}, "[26]": {"test_system": "HCT-116"}, "[27]": {"test_system": "UO-31"}, "[28]": {"test_system": "LOX IMVI"}, "[29]": {"test_system": "DMS-273"}, "[30]": {"test_system": "SF-539"}, "[31]": {"test_system": "MDA-MB-435"}, "[32]": {"test_system": "PC-3"}, "[33]": {"test_system": "KM-20L2"}, "[34]": {"test_system": "786-0"}, "[35]": {"test_system": "BT-549"}, "[36]": {"test_system": "SR"}, "[37]": {"test_system": "OVCAR-8"}, "[38]": {"test_system": "DMS-114"}, "[39]": {"test_system": "Hs-578T"}, "[40]": {"test_system": "ACHN"}, "[41]": {"test_system": "OVCAR-3"}, "[42]": {"test_system": "NCI-H226"}, "[43]": {"test_system": "K562"}, "[44]": {"test_system": "A498"}, "[45]": {"test_system": "LXFL 529"}, "[46]": {"test_system": "A549"}, "[47]": {"test_system": "NCI-H460"}, "[48]": {"test_system": "SN12C"}, "[49]": {"test_system": "SK-OV-3"}, "[50]": {"test_system": "UACC-62"}, "[51]": {"test_system": "RPMI-8226"}, "[52]": {"test_system": "HL-60"}, "[53]": {"test_system": "RXF 393"}, "[54]": {"test_system": "SW-620"}, "[55]": {"test_system": "SNB-75"}, "[56]": {"test_system": "UACC-257"}, "[57]": {"test_system": "SNB-19"}, "[58]": {"test_system": "U-251"}, "[59]": {"test_system": "CAKI-1"}, "[60]": {"test_system": "SK-MEL-2"}}, "note": "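Exposure lasted 48 hours, with cells grown in 96-well plates and compounds tested at five concentrations. Here, GI50 denotes the concentration required for 50% inhibition of growth.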 Active and inactive are the calls of the source. Cut-off read from the data, not from the text of the source: active = GI50 up to about 1.1 µM and inactive = higher.", "data": [{"smiles": "CO[C@H]1C[C@@H]2CC[C@@H](C)[C@@](O)(O2)C(=O)C(=O)N2CCCC[C@H]2C(=O)O[C@H]([C@H](C)C[C@@H]2CC[C@@H](O)[C@H](OC)C2)CC(=O)[C@H](C)C=C(C)[C@@H](O)[C@@H](OC)C(=O)[C@H](C)C[C@H](C)/C=C/C=C/C=C1C", "values": [{"measurement": "GI50", "setting": "[1]", "value": "0.1 µM (active)"}, {"measurement": "GI50", "setting": "[2]", "value": "11.8 µM (inactive)"}, {"measurement": "GI50", "setting": "[3]", "value": "0.0272 µM (active)"}, {"measurement": "GI50", "setting": "[4]", "value": "0.0243 µM (active)"}, {"measurement": "GI50", "setting": "[5]", "value": "< 0.01 µM (active)"}, {"measurement": "GI50", "setting": "[6]", "value": "0.251 µM (active)"}, {"measurement": "GI50", "setting": "[7]", "value": "0.358 µM (active)"}, {"measurement": "GI50", "setting": "[8]", "value": "0.1 µM (active)"}, {"measurement": "GI50", "setting": "[9]", "value": "0.46 µM (active)"}, {"measurement": "GI50", "setting": "[10]", "value": "7.55 µM (inactive)"}, {"measurement": "GI50", "setting": "[11]", "value": "0.394 µM (active)"}, {"measurement": "GI50", "setting": "[12]", "value": "8.24 µM (inactive)"}, {"measurement": "GI50", "setting": "[13]", "value": "< 0.01 µM (active)"}, {"measurement": "GI50", "setting": "[14]", "value": "10 µM (inactive)"}, {"measurement": "GI50", "setting": "[15]", "value": "< 0.0107 µM (active)"}, {"measurement": "GI50", "setting": "[16]", "value": "1.56 µM (inactive)"}, {"measurement": "GI50", "setting": "[17]", "value": 0.117, "unit": "µM"}, {"measurement": "GI50", "setting": "[18]", "value": "1.34 µM (inactive)"}, {"measurement": "GI50", "setting": "[19]", "value": "5.96 µM (inactive)"}, {"measurement": "GI50", "setting": "[20]", "value": "< 0.0104 µM (active)"}, {"measurement": "GI50", "setting": "[21]", "value": "0.167 µM (active)"}, {"measurement": "GI50", "setting": "[22]", "value": "< 0.01 µM (active)"}, {"measurement": "GI50", "setting": "[23]", "value": "1.77 µM (inactive)"}, {"measurement": "GI50", "setting": "[24]", "value": "0.817 µM (active)"}, {"measurement": "GI50", "setting": "[25]", "value": "0.417 µM (active)"}, {"measurement": "GI50", "setting": "[26]", "value": "5.71 µM (inactive)"}, {"measurement": "GI50", "setting": "[27]", "value": "< 0.01 µM (active)"}, {"measurement": "GI50", "setting": "[28]", "value": "0.0175 µM (active)"}, {"measurement": "GI50", "setting": "[29]", "value": "11 µM (inactive)"}, {"measurement": "GI50", "setting": "[30]", "value": "< 0.0111 µM (active)"}, {"measurement": "GI50", "setting": "[31]", "value": "1.28 µM (inactive)"}, {"measurement": "GI50", "setting": "[32]", "value": "0.0211 µM (active)"}, {"measurement": "GI50", "setting": "[33]", "value": "16 µM (inactive)"}, {"measurement": "GI50", "setting": "[34]", "value": "0.108 µM (active)"}, {"measurement": "GI50", "setting": "[35]", "value": "1.12 µM (inactive)"}, {"measurement": "GI50", "setting": "[36]", "value": "< 0.01 µM (active)"}, {"measurement": "GI50", "setting": "[37]", "value": "0.0564 µM (active)"}, {"measurement": "GI50", "setting": "[38]", "value": "0.1 µM (active)"}, {"measurement": "GI50", "setting": "[39]", "value": "0.0193 µM (active)"}]}, {"smiles": "COC(=O)c1c(OC(=O)c2ccccc2)noc1CC(=O)OC1C=CCCC1", "note": "(stereo not drawn)", "values": [{"measurement": "GI50", "setting": "[40]", "value": "> 100 µM (inactive)"}, {"measurement": "GI50", "setting": "[41]", "value": "> 100 µM (inactive)"}, {"measurement": "GI50", "setting": "[42]", "value": "> 100 µM (inactive)"}, {"measurement": "GI50", "setting": "[43]", "value": "72.6 µM (inactive)"}, {"measurement": "GI50", "setting": "[44]", "value": "68.5 µM (inactive)"}, {"measurement": "GI50", "setting": "[45]", "value": "58.7 µM (inactive)"}, {"measurement": "GI50", "setting": "[2]", "value": "> 100 µM (inactive)"}, {"measurement": "GI50", "setting": "[3]", "value": "25.5 µM (inactive)"}, {"measurement": "GI50", "setting": "[4]", "value": "> 100 µM (inactive)"}, {"measurement": "GI50", "setting": "[46]", "value": "> 100 µM (inactive)"}, {"measurement": "GI50", "setting": "[5]", "value": "> 100 µM (inactive)"}, {"measurement": "GI50", "setting": "[6]", "value": "> 100 µM (inactive)"}, {"measurement": "GI50", "setting": "[47]", "value": "> 100 µM (inactive)"}, {"measurement": "GI50", "setting": "[8]", "value": "> 100 µM (inactive)"}, {"measurement": "GI50", "setting": "[48]", "value": "> 100 µM (inactive)"}, {"measurement": "GI50", "setting": "[49]", "value": "> 100 µM (inactive)"}, {"measurement": "GI50", "setting": "[9]", "value": "> 100 µM (inactive)"}, {"measurement": "GI50", "setting": "[50]", "value": "28.6 µM (inactive)"}, {"measurement": "GI50", "setting": "[10]", "value": "> 100 µM (inactive)"}, {"measurement": "GI50", "setting": "[12]", "value": "> 100 µM (inactive)"}, {"measurement": "GI50", "setting": "[13]", "value": "> 100 µM (inactive)"}, {"measurement": "GI50", "setting": "[51]", "value": "> 100 µM (inactive)"}, {"measurement": "GI50", "setting": "[14]", "value": "> 100 µM (inactive)"}, {"measurement": "GI50", "setting": "[15]", "value": "> 100 µM (inactive)"}, {"measurement": "GI50", "setting": "[52]", "value": "35.1 µM (inactive)"}, {"measurement": "GI50", "setting": "[53]", "value": "93.1 µM (inactive)"}, {"measurement": "GI50", "setting": "[17]", "value": 86.1, "unit": "µM"}, {"measurement": "GI50", "setting": "[18]", "value": "45.4 µM (inactive)"}, {"measurement": "GI50", "setting": "[19]", "value": "> 100 µM (inactive)"}, {"measurement": "GI50", "setting": "[21]", "value": "> 100 µM (inactive)"}, {"measurement": "GI50", "setting": "[22]", "value": "80 µM (inactive)"}, {"measurement": "GI50", "setting": "[23]", "value": "> 100 µM (inactive)"}, {"measurement": "GI50", "setting": "[54]", "value": "> 100 µM (inactive)"}, {"measurement": "GI50", "setting": "[55]", "value": "> 100 µM (inactive)"}, {"measurement": "GI50", "setting": "[25]", "value": "27.5 µM (inactive)"}, {"measurement": "GI50", "setting": "[26]", "value": "> 100 µM (inactive)"}, {"measurement": "GI50", "setting": "[27]", "value": "66.4 µM (inactive)"}, {"measurement": "GI50", "setting": "[29]", "value": "> 100 µM (inactive)"}, {"measurement": "GI50", "setting": "[56]", "value": "95.5 µM (inactive)"}, {"measurement": "GI50", "setting": "[30]", "value": "> 100 µM (inactive)"}, {"measurement": "GI50", "setting": "[33]", "value": "> 100 µM (inactive)"}, {"measurement": "GI50", "setting": "[57]", "value": "> 100 µM (inactive)"}, {"measurement": "GI50", "setting": "[58]", "value": "> 100 µM (inactive)"}, {"measurement": "GI50", "setting": "[34]", "value": "> 100 µM (inactive)"}, {"measurement": "GI50", "setting": "[59]", "value": "> 100 µM (inactive)"}, {"measurement": "GI50", "setting": "[60]", "value": "> 100 µM (inactive)"}, {"measurement": "GI50", "setting": "[36]", "value": "> 100 µM (inactive)"}, {"measurement": "GI50", "setting": "[37]", "value": "> 100 µM (inactive)"}, {"measurement": "GI50", "setting": "[38]", "value": "38.5 µM (inactive)"}]}]}
